Results: PMC8429736, “Pharmacological characterization of mutant huntingtin aggregate-directed PET imaging tracer candidates” (Scientific Reports, 2021)

Tests used:
Q46 aggregates = test: RBA saturation binding, Q46 aggregates; conditions: tritiated compound; mean ± SD
Experimental: For N-terminal tag cleavage, proteins at 30 µM in 2 mL reaction tubes were incubated with 150 µg/mL thrombin (Sigma, T4648) in 50 mM Tris (pH 8.0), 150 mM NaCl, 2 mM CaCl2 for 16 h at 37 °C.
For radioligand binding assays (RBA) (see below) and radiometric filter trap assays (RAFTA) (see below), aggregates were separated by centrifugation (5 min 16,000×g) and resuspended with assay buffer (50 mM Tris pH 8.0, 150 mM NaCl) (see Supplementary Fig. S2B). […]
Samples were then transferred onto a 96-well GF/B filter plate (Perkin Elmer, #6005177) using a Filtermate Harvester, aspirated by vacuum and wells washed twice with 200 µL PBS. […] The tops of the plates were sealed, and the plates were incubated for 15 min in the dark and counted in a TopCount or MicroBeta2 reader (both Perkin Elmer).
For saturation binding experiments, aggregate lysate preparation and final concentration in the assay, assay buffer, incubation times and plate processing were identical to the competition format. […] Specific binding (SB) was calculated as full binding minus full competition (in the presence of excess unlabeled ligand) and a hyperbolic mono-phasic fit was applied using GraphPad Prism to determine Kd and Bmax.

Exon1-Q46 aggregates = molecular target: T1, Exon1-Q46 aggregates (Homo sapiens, UniProt P42858, INS38QQQQQQQQQQQQQQQQQQQQQQQQQ); test: RAFTA saturation binding, recombinant Exon1-Q46 aggregates
T1 construct: MBP-HTT(1-89)Q46-His(6x); MBP (N, cleaved yes); made in house; host or cells: E. coli BL21 (DE3)
T1 sequence (P42858 with tags, fused parts or gaps with the stated changes): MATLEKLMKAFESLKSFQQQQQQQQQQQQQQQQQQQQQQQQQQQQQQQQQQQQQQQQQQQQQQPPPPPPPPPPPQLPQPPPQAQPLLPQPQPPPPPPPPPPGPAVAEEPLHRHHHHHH

[1] = test system: mHTT aggregates in zQ175 brain homogenates; test: RAFTA with zQ175 brain homogenates; assay type: binding, mouse
Experimental: For RAFTA and MSD assays, mouse brains were transferred to lysis tubes and individually homogenized 1:3 (w/v) in brain lysis buffer (10 mM Tris pH 7.4, 800 mM NaCl, 1 mM EDTA, 1 × Protease inhibitor, 10% Sucrose, 0.5% Triton X-100, Benzonase (1:1000)) using a pre-cooled MP FastPrep homogenizer (3 × 30 s, 6.0 m/sec). Crude homogenates were transferred to LoBind reaction tubes (Eppendorf) and centrifuged at 15,700×g for 10 min at 4 °C. The supernatant was collected, and the pellet fraction was resuspended in brain lysis buffer. Generally, a minimum of three whole brains were lysed and fractions were pooled after homogenization to reduce assay variability due to inter-animal variability.
The total protein concentration of samples was determined by BCA assay (ThermoFisher Scientific, #23227), according to standard procedures and protein concentrations were adjusted to 5–10 mg/mL in brain lysis buffer. […]
For RAFTA analysis, frozen mouse brain homogenates were thawed on the day of the experiment and diluted with assay buffer (50 mM Tris pH 8.0; 150 mM NaCl) to a concentration of 500 µg/mL total protein. […] In experiments where non-specific binding (NSB) was determined, the incubation medium contained 5 µM of non-labeled (cold) CHDI-180, which was added prior to the addition of radioligand and incubated for 20 min at room temperature. […]

[2] = test system: beta amyloid/tau aggregates in post-mortem AD patient brain homogenates; test: ADbh RBA competition format; assay type: binding, human; conditions: radioligand 4; compound 1 µM
Experimental: For RBA in vitro binding assays, brain tissue was sliced (50 µm), weighed and homogenized in PBS (Gibco, 14190-94), 0.1% BSA with a glass pestle (10 strokes) at a concentration of 12–15 mg wet tissue per mL buffer. The crude homogenate concentration was then adjusted to 10 mg/mL (wet tissue) and stored as single-use aliquots at -80 °C.
RBA experiments using Alzheimer’s disease brain homogenates (ADbh RBA) followed the same assay principle as the RBA with recombinant HTT protein, using 0.68 mg/mL homogenate (100 µg per well with 150 µL assay volume) in assay buffer PBS, 0.01% Pluronic F127 (Sigma. P2443) and 1% DMSO after compound addition. […] Incubation at room temperature was conducted for 20 min after compound addition and for 5 h after radioligand addition. For the competition format, raw cpm were normalized towards assay controls as before, to obtain inhibition between 0 and 100%. For saturation binding, raw cpm were converted into nM as before, using a calibration line of total added radioligand, and normalized to mg of added homogenate to finally obtain pmol/mg.

[3] = molecular target: beta amyloid plaques (6E10 antibody) (Homo sapiens, UniProt P05067); test: HR ARG co-registration with 6E10 antibody, human AD brain sections; assay type: binding; conditions: 10 nM CHDI-180, 10 nM CHDI-626, 0.1 nM PiB, 1 nM T808
beta amyloid plaques (6E10 antibody), sequence (P05067 672-713 limits assumed): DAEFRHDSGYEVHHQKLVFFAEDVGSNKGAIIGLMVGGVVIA

## COc1ccc(COc2ccc3oc(-c4ccc(=O)n(C)n4)nc3c2)nc1 [CHDI-180]
Q46 aggregates
  Kd: 7.7 ± 3.3 nM
Exon1-Q46 aggregates
  Kd: 5.6 nM
  RAFTA Bmax: 1456 fmol/mg
[1]; 3 nM radioligand, cortices, striata or hippocampi of 9-month-old HET zQ175
  signal in pelleted material vs age-matched WT mice: > tenfold
[1]; 3-, 6-, 9-, 12-month-old HOM zQ175
  binding in brain homogenates with age: age-dependent increase
[2]
  inhibition at 1 µM: ~ 50%
[3]
  co-registration with 6E10-positive beta amyloid plaques: low density binding
